The series is described as follows: log P, partitioning coefficient of the fluorescer between octanol and water. The format is physicochemical. The conditions noted are these: octanol/water at ambient temperature. The text has this:
We have found the fluorescers of the present invention to be very effective when used with carbon dioxide whilst the fluorescers are readily soluble in carbon dioxide without the need for surfactants. A preferable selection of fluorescers can be described by their log P value. Log P being the partitioning coefficient of the fluorescer between octanol and water at ambient temperature, whereby P is the concentration of the fluorescer in octanol divided by the concentration of fluorescer in water. (Leo et al. Chem Rev 1971, 71, 525). If appropriate, the log P is determined in the presence of sodium and/or chloride as counterions. Accordingly, a preferred group of fluorescer has a log P of at least 2, more preferably at least 2.5. In many cases, the log P may also be estimated using specially designed programs, also described as clog P or calculated log P. However, if in certain cases these programs are inappropriate, the real log P should be measured.

In the case of `c1ccc2oc(-c3ccc(-c4nc5ccccc5o4)s3)nc2c1` [Tinopal™ SOP], the lipophilicity (log P) (usually a log measure of how a compound divides between an organic and an aqueous phase) is greater than 2.5.

Source of the values: patent US20020082180A1, “Fabric cleaning system” (Unilever Home & Personal Care USA, Division of Conopco, Inc., priority 2000, published 2002).
